{"source": "paper PMC4967021", "about": "(Biochemical and biophysical research communications, 2016)", "molecular_target": "T1, CCL21 (Homo sapiens, UniProt O00585)", "T1 sequence (O00585 24-134)": "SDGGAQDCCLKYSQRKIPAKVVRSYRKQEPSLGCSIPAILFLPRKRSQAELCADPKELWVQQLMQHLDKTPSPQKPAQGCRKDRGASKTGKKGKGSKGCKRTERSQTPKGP", "assay": "[…]-1H HSQC NMR titration, chemical shift perturbation fit with ligand depletion", "type": "binding", "details": "100 µM 15N-CCL21, 25 mM deuterated MES pH 6.0, 10% D2O, 0.2% NaN3"}
{"compound": "O=C(O)C1=C[C@H](O)[C@@H](OS(=O)(=O)O)[C@H](O[C@H]2[C@H](O)[C@@H](NS(=O)(=O)O)C(O)O[C@@H]2COS(=O)(=O)O)O1", "note": "(stereo partly shown) [heparin disaccharide I-S]", "values": [{"measurement": "Kd", "result": "~500", "unit": "µM"}]}
